The source of these data is patent US5798370A, “Platelet aggregation inhibitors” (G. D. Searle & Co., priority 1996, dated 1998).

The structures appear in SMILES notation. Counter-ions that a name gives are not always drawn.

This experiment has as its system Human Platelet Rich Plasma. Put plainly: ADP induced Aggregation of Human Platelet Rich Plasma. The experiment is classed as cell-based. The note with it: 37° C., half-maximal inhibition, read-out: Human Platelet Agg IC50. How it is done:
Healthy aspirin free donors were randomly selected from a pool of volunteers. The harvesting of platelet rich plasma and subsequent ADP induced platelet aggregation assays were performed as described in Zucker, M. B., "Platelet Aggregation Measured by the Photometric Method", Methods in Enzymology 169(1989):117-133. Standard venipuncture techniques using a butterfly allowed the withdrawal of 45 mL of whole blood into a 60 mL syringe containing 5 mL of 3.8% trisodium citrate. Following thorough mixing in the syringe, the anti-coagulated whole blood was transferred to a 50 mL conical polyethylene tube. The blood was centrifuged at room temperature for 12 minutes at 200 xg to sediment non-platelet cells. Platelet rich plasma was removed to a polyethylene tube and stored at room temperature until used. Platelet poor plasma was obtained from a second centrifugation of the remaining blood at 2000 xg for 15 minutes. Platelet counts are typically 300,000 to 500,000 per microliter. Platelet rich plasma (0.45 mL) was aliquoted into siliconized cuvettes and stirred (1100 rpm) at 37° C. for 1 minute prior to adding 50 uL of pre-diluted test compound. […] Aggregation was recorded for 3 minutes in a Payton dual channel aggregometer (Payton Scientific, Buffalo, N.Y.). […] All compounds were tested in duplicate and half-maximal inhibition (IC50) was calculated graphically from the dose response curve.

For `N=C(N)NCCCC(=O)NCCC(=O)NC(CC(=O)O)c1cccnc1` (racemic) [Example 5, (±) β-[[3-[[4-[(aminoiminomethyl)amino]-1-oxobutyl]amino]-1-oxopropyl]amino]-3-pyridinepropanoic acid, bistrifluoroacetate salt], the concentration for half-maximal inhibition (IC50) (commonly the point on the concentration scale where inhibition reaches its midpoint) came to 200 µM.

Take `N=C(N)NCCCCC(=O)NCC(=O)NC(CC(=O)O)c1cccnc1` (stereo not drawn) [Example 1, β-[[2-[[5-[(aminoiminomethyl)amino]-1-oxopentyl]amino]-1-oxoethyl]amino]-3-pyridinepropanoic acid, bistrifluoroacetate salt]: the IC50 stood at 20 µM.
